{
  "source": "patent US20130164384A1",
  "about": "“METHODS OF TREATING BOWEL DISEASES BY ADMINISTERING A BOWEL CLEANSER AND AN ANTIBIOTIC” (Salix Pharmaceuticals, Ltd., priority 2008, published 2013)",
  "test_system": "subjects diagnosed with dIBS",
  "assay": "Designed study of 14-day oral rifaximin 550 mg TID for adequate relief of dIBS symptoms over four weeks",
  "assay_type": "in vivo, human",
  "settings": "oral 550 mg TID, 14-day course; 4 week study duration",
  "protocol": "A study is designed to evaluate the efficacy of a 14-day course of oral rifaximin at 550 mg TID in providing adequate relief from diarrhea-associated IBS (dIBS) symptoms over four weeks. The study populations includes subjects diagnosed with dIBS according to Rome III criteria utilizing the subtype for dIBS from the Rome II criteria. Subjects have a mean abdominal pain and discomfort score <4.5, a mean bloating score of <4.5 and a mean stool score (loose and watery)<3.5 for at least 7 of the 10 days during screening. A measure of efficacy is based on subjects' answers to the Weekly Subject Global Assessment (SGA) questions over the 4 week study duration in relation to their IBS symptoms. The SGA question is asked weekly as follows: “In the past 7 days, have you had adequate relief of your IBS symptoms?” (Yes/No.) It is discovered that Subjects in the treatment group taking oral rifaximin respond “Yes” more often than Subjects who are not taking oral rifaximin. Another measure of efficacy is based on subjects' answers to the Weekly Subject Global Assessment (SGA) question over the 4 week study duration in relation to their IBS symptom of bloating. The SGA question is asked weekly as follows: “In the past 7 days, have you had adequate relief of your IBS symptom of bloating?” (Yes/No). […]",
  "data": [
    {"smiles": "COC1/C=C/OC2(C)Oc3c(C)c(O)c4c(O)c(c5c(nc6cc(C)ccn65)c4c3C2=O)NC(=O)/C(C)=C\\C=C\\C(C)C(O)C(C)C(O)C(C)C(OC(C)=O)C1C", "note": "[RFX, (2S,16Z,18E,20S,21S,22R,23R,24R,25S,26S,27S,28E)-5,6,21,23,25 Pentahydroxy-27-methoxy-2,4,11,16,20,22,24,26-octamethyl-2,7-(epoxypentadeca-(1,11,13)trienimino)benzofuro(4,5-e)pyrido(1,2,-a)benzimidazole-1,15(2H)-dione,25-acetate]", "values": [
      {"measurement": "\"Yes\" responses to weekly SGA question on adequate relief of IBS symptom of bloating versus subjects not taking rifaximin", "result": "more often"},
      {"measurement": "\"Yes\" responses to weekly SGA question on adequate relief of IBS symptoms versus subjects not taking rifaximin", "result": "more often"}
    ]}
  ]
}
